Like-named read-outs stand apart in the source and are kept apart here.

The target in this experiment is T1, WT-TTR (Homo sapiens, UniProt P02766).
T1 construct: made in house
The experiment in a line: Stagnant acid-mediated TTR aggregation (fibril formation) assay, turbidity at 340 nm. In kind it is biochemical. To be noted: for remaining activity at 100 µM / remaining activity at 50 µM: 72 h; for remaining activity at 50 µM: read-out: % FF at 50 μM. How it is done: Stagnant Acid-Mediated TTR Aggregation Assay.
After 1 h, the samples were diluted with 0.5 ml of 200 mM sodium acetate buffer containing 100 mM KCl and 1 mM EDTA. Samples after mild vortexing were incubated at 37° C. for the desired amount of time without stirring to evaluate the efficacy of the inhibitors. The extent of aggregation was probed by turbidity measurements at 340 nm using Tecan GENios microplate reader. […] The extent of TTR fibril formation in the absence of inhibitor was defined to be 100%. […] All experiments were done in triplicate. […] The IC50 was determined by plotting mean of % inhibition vs log and fitted to sigmoid equation:
The experiments were conducted at 25° C. After 1 h, the samples were diluted with 0.5 mL of 200 mM sodium acetate buffer pH 4.4 containing 100 mM KCl and 1 mM EDTA, vortexed, and incubated at 37° C. for 72 h. […] The stoichiometry of the binding of the inhibitors was determined by HPLC as described by Green et al., N. S. Palaninathan, S, L, Sacchettini, J. e. […] Dissociation constant of binding of these compounds to TTR was determined by fluorescence titration, and data were fitted into the Adair equation for two bind mg.

[1] abbreviates: pH 4.4, compound 100 μM, WT-TTR 7.2 μM, pH 4.4, 37° C., read-out: % FF.
The mark [2] stands for this setting: pH 4.4, compound 100 μM, WT-TTR 7.2 μM, pH 4.4, 37° C., read-out: % Inhibition.
[3] abbreviates: biphenyl ether 50 μM, WT-TTR 7.2 μM.

Take `Cc1nnc2c(Oc3ccc(Cl)cc3)nc3ccccc3n12` [Compound 5001-0261]: the remaining activity at 100 µM under setting [1] was 114%. In addition, the inhibition (as a rule, the share of the control response that was lost under treatment) at 100 µM under setting [2] amounted to 0%.

Take `O=C(c1cc(-c2ccc(Cl)s2)nc2ccccc12)N1CCOCC1` [Compound C136-0215]: the remaining activity at 100 µM under setting [1] came to 156%. For the same compound, under setting [2], the inhibition at 100 µM stood at 0%.

`CCN(CC)CCCN(Cc1ccco1)C(=S)Nc1ccc(OC)cc1` [Compound C087-0785]: the remaining activity at 100 µM under setting [1] was 107%. The inhibition at 100 µM under setting [2] is 0%.

Take `O=C(O)C1CSC(c2ccc(Cl)cc2Cl)N1` (stereo not drawn) [Compound K085-0018]: the remaining activity at 100 µM under setting [1] stood at 22.3%. Further, the inhibition at 100 µM under setting [2] came to 77.7%.

Regarding `Nc1nc(F)cc(Oc2ccc(F)cc2)n1` [Compound 1544-0071], the remaining activity at 100 µM under setting [1] stood at 84%. For the same compound, the inhibition at 100 µM under setting [2] was 16%.

For `NN1C(=O)/C(=C\c2ccc(Cl)cc2)NC1=S` [Compound C249-0056], the remaining activity at 100 µM under setting [1] amounted to 131%. In addition, under setting [2], the inhibition at 100 µM came to 0%.

`O=C1/C(=C\c2ccc(-c3ccc(Cl)cc3)o2)SC(=S)N1c1cccc(Cl)c1` [Compound 1934-0113]: the remaining activity at 100 µM under setting [1] came to 107%. In addition, the inhibition at 100 µM under setting [2] worked out at 0%.

For `Cc1ccccc1Nc1c(-c2ccc(O)cc2)nc2ccc(Cl)cn12` [Compound C273-0223], the remaining activity at 100 µM under setting [1] was found to be 130%. Besides, under setting [2], the inhibition at 100 µM is 0%.

Turning to `Cc1cc(C(=O)Nc2cc(Cl)ccc2O)no1` [Compound C226-2564], the remaining activity at 100 µM under setting [1] was 96.8%. Moreover, the inhibition at 100 µM under setting [2] worked out at 3.18%.

Turning to `Oc1ccc(-c2nc3ncccn3c2Nc2ccc(Cl)cc2)cc1` [Compound C239-0727], the remaining activity at 100 µM under setting [1] was found to be 135%. The inhibition at 100 µM under setting [2] is 0%.

`COc1cc(C=O)ccc1Oc1ccc([N+](=O)[O-])cc1[N+](=O)[O-]` [Compound 16]: the remaining activity at 50 µM under setting [3] is 66%.

For the compound `O=C(O)C1CSC(c2ccc([N+](=O)[O-])cc2)N1` (stereo not drawn) [Compound K085-0004], the remaining activity at 100 µM under setting [1] stood at 119%. Also, the inhibition at 100 µM under setting [2] came out at 0%.

With `CSC1=NSC2=NC(=O)/C(=C\c3ccc[nH]3)C(=N)N12` [Compound C146-0661], the remaining activity at 100 µM under setting [1] stood at 202%. In addition, the inhibition at 100 µM under setting [2] was 0%.

As for `Cc1nc2c(ccc3ccccc32)c(O)c1CN1CCOCC1` [Compound 3453-1337], under setting [1], the remaining activity at 100 µM was determined as 69.6%. Besides, the inhibition at 100 µM under setting [2] turned out to be 30.4%.

In the case of `Oc1ccccc1-c1nnc(S)o1` [Compound 0350-0160], under setting [1], the remaining activity at 100 µM was 13.8%. The inhibition at 100 µM under setting [2] came out at 86.2%.

As to `O=C(NC(c1ccccc1)c1cc(Cl)c2cccnc2c1O)c1cccnc1` (stereo not drawn) [Compound K839-0113], the remaining activity at 100 µM under setting [1] is 29.6%. The inhibition at 100 µM under setting [2] stood at 70.4%.

On to `O=C(O)C1CSC(c2cccnc2)N1` (stereo not drawn) [Compound K085-0021], for which the remaining activity at 100 µM under setting [1] stood at 144%. Besides, the inhibition at 100 µM under setting [2] amounted to 0%.

As to `Cn1c(=O)c2c(nc(Oc3ccc(-n4cnnn4)cc3)n2C)n(C)c1=O` [Compound 3615-0252], under setting [1], the remaining activity at 100 µM is 155%. Under setting [2], the inhibition at 100 µM was 0%.

For `O=C(Nc1c2c(nn1-c1ccc(F)cc1)C[S+]([O-])C2)c1ccccc1F` (stereo not drawn) [Compound C077-0216], the remaining activity at 100 µM under setting [1] turned out to be 104%. Further, the inhibition at 100 µM under setting [2] worked out at 0%.

As for `O=Cc1ccc(Oc2ccc([N+](=O)[O-])cc2[N+](=O)[O-])c(O)c1` [Compound 17], the remaining activity at 50 µM came to 40.5%. Also, the IC50 (as a rule, the concentration needed to halve the response being measured) (Table 3, WT-TTR 7.2 μM, read-out: IC50) was determined as 55 µM.

Take `O=C(NC(c1cccc([N+](=O)[O-])c1)c1cc(Cl)c2cccnc2c1O)c1cccnc1` (stereo not drawn) [Compound K839-0117]: under setting [1], the remaining activity at 100 µM came out at 72.8%. Moreover, the inhibition at 100 µM under setting [2] came to 27.2%.

Turning to `Fc1ccccc1NC(=S)N(CCCN1CCOCC1)Cc1cccnc1` [Compound C087-1168], the remaining activity at 100 µM under setting [1] is 99.3%. Further, the inhibition at 100 µM under setting [2] came out at 0.7%.

Take `O=C1CCCC2=C1C(c1cccc(O)c1)NC(=S)N2` (stereo not drawn) [Compound C157-0040]: the remaining activity at 100 µM under setting [1] stood at 106%. Further, the inhibition at 100 µM under setting [2] was determined as 0%.

For the compound `O=C(O)c1ccc(Oc2ccc([N+](=O)[O-])cc2[N+](=O)[O-])c(O)c1` [Compound 22], under setting [3], the remaining activity at 50 µM was found to be 75%.

In the case of `Cc1nc2c(C(=O)NCCC(C)C)cnn2c(O)c1Cc1ccccc1F` [Compound C218-0295], the remaining activity at 100 µM under setting [1] is -86.7%. In addition, the inhibition at 100 µM under setting [2] is 91.7%.

Consider `COc1ccc(NC(=S)N(CCCN2CCOCC2)Cc2cccnc2)cc1` [Compound C087-0811], for which the remaining activity at 100 µM under setting [1] was 98.6%. In addition, the inhibition at 100 µM under setting [2] is 1.4%.

For `COc1cc(CCl)ccc1Oc1ccc([N+](=O)[O-])cc1[N+](=O)[O-]` [Compound 18], under setting [3], the remaining activity at 50 µM stood at 79%.

As to `CCOC(=O)c1sc(=S)n(-c2cccc3ccccc23)c1N` [Compound R052-0949], the remaining activity at 100 µM under setting [1] is 146%. Besides, under setting [2], the inhibition at 100 µM came out at 0%.

As to `O=C1OC(c2ccc(Cl)cc2Cl)=N/C1=C/c1ccc(Cl)c(Cl)c1` [Compound K088-1297], the remaining activity at 100 µM under setting [1] came to 138%. The inhibition at 100 µM under setting [2] was 0%.

Regarding `Clc1ccccc1C1CC(c2cccs2)Nc2nnnn21` (stereo not drawn) [Compound K832-3346], the remaining activity at 100 µM under setting [1] was determined as 0%. Further, the inhibition at 100 µM under setting [2] stood at 100%.

In the case of `CCOC(=O)c1sc(=S)n(-c2ccc(Br)cc2)c1N` [Compound R052-0946], under setting [1], the remaining activity at 100 µM amounted to 164%. For the same compound, the inhibition at 100 µM under setting [2] was found to be 0%.

On to `CSC1=NSC2=NC(=O)/C(=C\c3ccc(O)cc3)C(=N)N12` [Compound C146-0184], for which the remaining activity at 100 µM under setting [1] is 72.7%. Further, under setting [2], the inhibition at 100 µM was determined as 27.3%.

`COc1cc(CO)ccc1Oc1ccc([N+](=O)[O-])cc1` [Compound 15]: the remaining activity at 50 µM under setting [3] came out at 89.5%.

Regarding `Cc1ccc2nc(Nc3nc(O)c4ccccc4n3)nc(C)c2c1` [Compound 5594-0187], under setting [1], the remaining activity at 100 µM worked out at 68.9%. Besides, the inhibition at 100 µM under setting [2] was 31.1%.

As to `COc1ccc(/C=C2\SC(=S)N(c3ccc(O)cc3)C2=O)cc1` [Compound 2189-0710], the remaining activity at 100 µM under setting [1] stood at 281%. Further, the inhibition at 100 µM under setting [2] turned out to be 0%.

On to `Oc1ccc(-c2nnc(S)o2)cc1` [Compound 0350-0159], for which the remaining activity at 100 µM under setting [1] was 19.2%. Further, the inhibition at 100 µM under setting [2] turned out to be 80.8%.

Take `FC(F)(F)c1cccc(NC(=S)N(CCCN2CCCCC2)Cc2cccs2)c1` [Compound C087-1176]: the remaining activity at 100 µM under setting [1] is 86.7%. Also, the inhibition at 100 µM under setting [2] is 13.3%.

For the compound `O=C(O)CCCCCN1C(=O)/C(=C/c2c[nH]c3ccccc23)SC1=S` [Compound 2279-3516], the remaining activity at 100 µM (pH 4.4, read-out: % FF) came out at 126%. Moreover, the inhibition at 100 µM (pH 4.4) was determined as 0%.

`O=C1CSC(c2ccc(Cl)cc2Cl)N1c1ccc(Cl)cc1` (stereo not drawn) [Compound 8004-9890]: the remaining activity at 100 µM under setting [1] came out at 20.3%. Under setting [2], the inhibition at 100 µM is 79.7%.

Regarding `Oc1ccc(Nc2nc(-c3ccc(Cl)cc3)nc3ccccc23)cc1` [Compound 5847-1646], the remaining activity at 100 µM under setting [1] came to 96%. Besides, the inhibition at 100 µM under setting [2] was 4.06%.

For `O=C(O)CCc1nc(-c2cccs2)no1` [Compound C066-2523], under setting [1], the remaining activity at 100 µM was 32.1%. Further, the inhibition at 100 µM under setting [2] came to 67.9%.
